Measured values reported in publication PMC6151435, “Bioactivity In Vitro of Quercetin Glycoside Obtained in Beauveria bassiana Culture and Its Interaction with Liposome Membranes” (Molecules : A Journal of Synthetic Chemistry and Natural …, 2017).
Converted amounts (≈) assume the structure as drawn. Like-named read-outs stand apart in the source and are kept apart here.

Key:
[1] = rat, in vivo; cited from earlier work
HSA = details: cited from earlier work; for binding constant to HSA: ref [59]
[2] = cited from earlier work
[3] = design: method as in Strugała et al. [46]; details: ref Strugała et al. [46]; read-out: IC50 AAPH PC (inhibition of AAPH induced oxidation of phosphatidylcholine liposomes); cited from earlier work
[4] = Solubility in water (literature values); format: physicochemical; details: from cited values

## O=c1c(O[C@@H]2O[C@H](CO)[C@@H](O)[C@H](O)[C@H]2O)c(-c2ccc(O)c(O)c2)oc2cc(O)cc(O)c12 [3-O-glucoside of quercetin]
[1]
  absorption, higher compared to quercetin itself: 184%

## CC(=O)Oc1ccccc1C(=O)O [aspirin]
HSA
  binding constant to HSA: approximately 1.4 × 10^4 M^−1

## O=C1C[C@@H](c2ccc(O)cc2)Oc2cc(O)cc(O)c21 [naringenin]
[2]; at 20 °C, ref [9]
  solubility: 4.38 µg/mL (≈ 16.1 µM)

## COc1ccc2c(c1)c(CC(=O)O)c(C)n2C(=O)c1ccc(Cl)cc1 [Indomethacin, indomethacin]
HSA
  binding constant to HSA: ~489000 M⁻¹

## Cc1cnc(NC(=O)C2=C(O)c3ccccc3S(=O)(=O)N2C)s1 [meloxicam]
HSA; order of magnitude, ref [58]
  association constant to HSA: ~10^5 M^−1
HSA; ref [58]
  bound to HSA: more than 99%

## O=C1O[C@H]([C@@H](O)CO)C(O)=C1O [L(+) ascorbic acid, L-(+)-ascorbic acid]
[3]
  IC50: 129 ± 12.4 µM

## C[C@@H]1O[C@@H](O[C@H]2[C@H](Oc3cc(O)c4c(c3)O[C@H](c3ccc(O)cc3)CC4=O)O[C@H](CO)[C@@H](O)[C@@H]2O)[C@H](O)[C@H](O)[C@H]1O [naringin]
[4]
  solubility, fold higher than aglycone naringenin: more than 110 fold
[2]; ref [10]
  solubility: 500 µg/mL (≈ 861 µM)
